Patent US20070031485A1, “Pharmaceutical composition having a cationic excipient” (priority 2003, published 2007)
Read-outs that look alike come from different tables or passages of the source.

Legend:
[1] = Critical micelle concentration; type: physicochemical
[2] = tested on: intestinal mucosa (small intestine segments); experiment: Using (Ussing) diffusion chamber experiments, passage of marker molecules across rat small intestine; conditions: betaine ester containing solution (0.5 % w/w) compared to control
Text: (§1) A modified Using diffusion chamber with an exposed tissue area 1.78 cm^2 was used in the experiments. 15 to 20 cm of the small intestine, distal to the Ligament of Treitz was removed from rats (male Sprague-Dawley, 400-500 g) and used in the tests. Three rats and three segments per rat were included in each experimental group. The passage of different marker molecules, ^14C-mannitol and FITC-dextran (4400 FD4), from the mucosal to the serosal chamber were expressed as apparent permeability coefficient (Papp). The apparent permeability coefficient (Papp) to mannitol and FITC-dextran 4.400 across the intestinal mucosa was calculated from the equation: Papp (cm/s)×10-6)=dc/dt * (V/(A*C0)), where dc/dt is the change of the serosal concentration over time (mol/L/sec), V is the volume in the reservoir of the serosal side (cm^3), CO is the initial concentration of the marker in the mucosal reservoir (mol/L), and A is the exposed intestinal area in the chamber (cm^2) .
(§2) The difference in electric potential over the segments was measured before and after the experiment.

[3] = type: physicochemical; conditions: buffer
Text: Surface-active betaine esters are even more susceptible to alkaline hydrolysis than non-surface active esters. The reason for the increased reactivity of surface-active betaine esters is that the ester bond will hydrolyse more readily when the surfactants are in the form of aggregates, i.e. micelles. Like all other surfactants, surface-active betaine esters form micelles at a certain concentration, the CMC, and further increase of the surfactant concentration just leads to the formation of more micelles; the concentration of free surfactant molecules stays constant. In the vast majority of applications of cationic surfactants the concentration is far above the CMC, which means that almost all surfactants are in an aggregated form. The micelles of betaine ester surfactants are highly positively charged since all the quaternary ammonium groups are located at the surface of the aggregate. The positive charges must be compensated for by negatively charged ions, so-called counterions. All types of negative ions present in the solution, including hydroxyl ions, will accumulate at the micelle surface. This means that the local concentration of hydroxyl ions will be higher in the vicinity of the micelle than in the bulk, or, differently expressed, the local pH around the micelles will be higher than in the bulk. […]

[4] = tested on: intestinal mucosa (small intestine segments)
Text: as §1, §2

[5] = Stabilization of aqueous dispersion of cholesterol particles, visual appearance; type: physicochemical; conditions: 1% cholesterol in 0.1% w/w (3 mM) dodecyl betainate solution
Procedure: The ability of dodecyl betainate to stabilize aqueous dispersions of hydrophobic particles was investigated in samples containing 1% cholesterol (of lanolin origin, Fluka) in pure water and in dodecyl betainate solutions of varying concentration. The samples were prepared by weighing the components into screw-capped glass vials that were first shaken, then kept in an ultrasonic bath for 5 minutes and finally shaken again before left for inspection. The table below presents the visual appearance of samples with different surfactant concentrations at different times.

Procedure for Erythrocytes from rats: Erythrocytes from rats were washed 3 times and suspended in saline solution (0.9%) to a volume fraction of 0.025. The hemolys experiments were performed by mixing the erythrocyte suspension with surfactant solutions in a 1:1 ratio, thereby giving a finale erythrocyte volume fraction of 0.0125 and a surfactant concentration as stated in the figure. The samples were then incubated at 37° C. for 1 hour and centrifuged at 2000 g for 10 minutes. Aliquots of the supernatant was mixed with an equal volume of 15 mM C14TAC before the hemoglobin content was measured spectrophotometrically on a Lab systems iEMS Reader MF at 540 nm.
The concentrate was dispersed in saline solution by gentle stirring at room temperature just before the experiment. The resulting aqueous dispersion was tested in the same way as stated above for the surfactant solution.
The concentrations given in the figure represent the amounts of cationic surfactant in the tested solutions. […] The phosphatidyl choline used is Epikuron 200 from Degussa BioActives, a pharmaceutical grade product of soybean origin. All data are normalized to the absorbance obtained from hemolysis by the 0.5 mM tetradecyltrimethylammonium chloride sample.

SMILES | critical micelle concentration (CMC) [1] [mM] | damage to segments, potential difference over the segments before and after treatment [2] | half-life (hydrolysis) [3] [h] | toxicity to red blood cells (relative haemolytic effect) (Erythrocytes from rats; at low concentrations, 37° C., 1 hour, compared with C14TAC) | toxicity to red blood cells (relative haemolytic effect) (Erythrocytes from rats; betaine ester co-formulated with phosphatidyl choline (weight ratio 20 to 80)) | permeability of intestinal segments for marker molecules [4] | Visual appearance after 5 min. [5]
CCCCCCCCCCCCCC[N+](C)(C)C.[Cl-] [C14TAC, tetradecyltrimethylammonium chloride, reference compound] | 2.5 |  |  |  |  |  | 
CCCCCCCCCCCCOC(=O)C[N+](C)(C)C [dodecyl betainate] | 3.1 | no increased damage | 1.5 | lower than that of the stable surfactant C14TAC | further lowered | not affected | Turbid dispersion
CCOC(=O)C[N+](C)(C)C [ethyl betainate, reference compound] |  |  | 9 |  |  |  | 
